Values of other authors as cited in patent US20260345619A1 (Principia Biopharma Inc., priority 2023, published 2026).
Read-outs that look alike come from different tables or passages of the source.

Assays:
[1] = cited from earlier work
[2] = system: 251 kinases sharing a common cysteine in their active site; details: 1 μM; panel of 251 kinases; cited from earlier work

In the case of benralizumab: anti-IL5 receptor, the efficacy ([1]; severe asthma, eosinophilic phenotype) is listed as “have shown efficacy”.
In the case of “omalizumab: anti-immunoglobulin E (IgE) agent”, the black box warning ([1]; in vivo) is given as “black box warning of potential for anaphylaxis” and the efficacy ([1]; severe, corticosteroid-refractory allergy-induced asthma) is given as “has shown efficacy”.
For `C=CC(=O)N1CCC[C@@H](n2nc(-c3ccc(Oc4ccccc4)cc3)c3c(N)ncnc32)C1` [ibrutinib, reference compound], the “number of kinases inhibited (>90% inhibition)” value [2] is given as 21 kinases.
